One assay has as its target T1, Low molecular weight protein-tyrosine phosphatase A (Mycobacterium tuberculosis, UniProt P9WIA1).
T1 sequence (P9WIA1 whole entry): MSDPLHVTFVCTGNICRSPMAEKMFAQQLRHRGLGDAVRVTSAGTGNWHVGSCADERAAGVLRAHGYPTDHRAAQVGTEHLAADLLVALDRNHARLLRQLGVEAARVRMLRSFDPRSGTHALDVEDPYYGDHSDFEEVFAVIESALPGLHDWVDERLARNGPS
The assay is described as follows: Inhibition of Mycobacterium tuberculosis PtpA.
Details: not given
Chain of Dual specificity protein phosphatase 3 (P51452 whole entry): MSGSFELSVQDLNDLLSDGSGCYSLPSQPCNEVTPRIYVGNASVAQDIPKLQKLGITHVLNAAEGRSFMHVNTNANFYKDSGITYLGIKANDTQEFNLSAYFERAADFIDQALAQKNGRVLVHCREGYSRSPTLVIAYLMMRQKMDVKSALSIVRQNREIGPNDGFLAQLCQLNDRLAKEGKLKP
On to `O=C(Nc1nc2ccccc2[nH]1)c1ccc(C(F)(F)P(=O)(O)O)cc1`, for which the Ki result was “ND(Insoluble)”.

The assay is the same for the next values; noted with them: read-out: Ki.
As to `O=P(O)(O)C(F)(F)c1ccc(Br)cc1`, the inhibitory constant (Ki) came out at 92.3 µM.

As for `CC(C)NC(=O)c1ccc(C(F)(F)P(=O)(O)O)cc1`, the inhibition constant Ki was above 100 µM. The same measure, in the same setting: the figure for `O=C(Nc1ccccc1C(F)(F)F)c1ccc(C(F)(F)P(=O)(O)O)cc1` is 54.8 µM; for `O=C(Nc1ccc(F)cc1)c1ccc(C(F)(F)P(=O)(O)O)cc1` it is 22.7 µM; for `CN(C(=O)c1ccc(C(F)(F)P(=O)(O)O)cc1)c1ccccc1` it is above 100 µM. Same read-out and setting: the figure for `O=P(O)(O)C(F)(F)c1ccc(CNc2ccccc2)cc1` is above 100 µM; for `O=C(Nc1ccc(Cl)c(C(F)(F)F)c1)c1ccc(C(F)(F)P(=O)(O)O)cc1` it is 6 µM; for `O=C(Nc1ccc(Br)c(C(F)(F)F)c1)c1ccc(C(F)(F)P(=O)(O)O)cc1` it is 4.9 µM. On the same count and under the same terms, the figure for `O=C(Nc1ccc(C(F)(F)P(=O)(O)O)cc1)c1ccccc1` is 65.5 µM; for `O=C(Nc1ccccc1)c1cccc(C(F)(F)P(=O)(O)O)c1` it is above 100 µM; for `O=P(O)(O)C(F)(F)c1ccc2c(cnn2Cc2ccccc2)c1` it is above 100 µM.

Turning to `O=P(O)(O)C(F)(F)c1ccc2nn(Cc3ccccc3)cc2c1`, the Ki stood at 84.4 µM. The same measure, in the same setting: the figure for `CCN1CCC(NC(=O)c2ccc(C(F)(F)P(=O)(O)O)cc2)CC1` is above 100 µM. Same read-out and setting: the result for `O=P(O)(O)C(F)(F)c1ccc(COc2ccccc2)cc1` reads above 100 µM; that for `CNC(=O)c1ccc(C(F)(F)P(=O)(O)O)cc1`, above 100 µM.

As for `O=C(NCC1CCCC1)c1ccc(C(F)(F)P(=O)(O)O)cc1`, the inhibition constant Ki is above 100 µM. On the same count and under the same terms, the result for `O=C(NCc1ccccc1)c1ccc(C(F)(F)P(=O)(O)O)cc1` reads 43.1 µM; that for `O=C(Nc1nccs1)c1ccc(C(F)(F)P(=O)(O)O)cc1`, 33 µM.

In the case of `O=C(Nc1ccccc1)c1ccc(C(F)(F)P(=O)(O)O)cc1`, the Ki was 24 µM. Still for that read-out and setting: the result for `O=C(Nc1ccccc1Br)c1ccc(C(F)(F)P(=O)(O)O)cc1` reads 44.6 µM; that for `O=C(Nc1cccc(F)c1)c1ccc(C(F)(F)P(=O)(O)O)cc1`, 41.8 µM. Still for that read-out and setting: the figure for `O=C(Nc1cccc(Cl)c1)c1ccc(C(F)(F)P(=O)(O)O)cc1` is 34.9 µM. The same measure, in the same setting: the figure for `O=C(Nc1cccc(Br)c1)c1ccc(C(F)(F)P(=O)(O)O)cc1` is 18.2 µM; for `O=C(Nc1cccc(C(F)(F)F)c1)c1ccc(C(F)(F)P(=O)(O)O)cc1` it is 10.7 µM. As to `O=C(Nc1ccc(C(F)(F)F)cc1)c1ccc(C(F)(F)P(=O)(O)O)cc1`, the Ki was 18.5 µM.

Consider `O=C(Nc1ccc(Cl)cc1)c1ccc(C(F)(F)P(=O)(O)O)cc1`, for which the Ki is 16.8 µM. Same read-out and setting: the result for `O=C(Nc1ccc(Br)cc1)c1ccc(C(F)(F)P(=O)(O)O)cc1` reads 10.3 µM; that for `O=C(Nc1ccc(F)c(C(F)(F)F)c1)c1ccc(C(F)(F)P(=O)(O)O)cc1`, 11.4 µM. Still for that read-out and setting: the figure for `O=C(O)c1ccc(C(F)(F)P(=O)(O)O)cc1` is above 100 µM; for `O=C(Cc1ccc(C(F)(F)P(=O)(O)O)cc1)Nc1ccccc1` it is above 100 µM. Consider `O=C(Nc1cc(C(F)(F)F)cc(C(F)(F)F)c1)c1ccc(C(F)(F)P(=O)(O)O)cc1`, for which the Ki came out at 3.3 µM. For `O=C(Nc1cc(C(F)(F)F)c(Br)c(C(F)(F)F)c1)c1ccc(C(F)(F)P(=O)(O)O)cc1`, the Ki is 1.4 µM.

Take `O=[N+]([O-])c1ccc(C(F)(F)P(=O)(O)O)cc1`: the inhibition constant Ki amounted to 75.4 µM. `Cn1cc(-c2ccc(C(F)(F)P(=O)(O)O)cc2)cn1`: the inhibitory constant (Ki) was above 100 µM. Same read-out and setting: the result for `O=C(NC1CCCC1)c1ccc(C(F)(F)P(=O)(O)O)cc1` reads 72.4 µM.

Regarding `O=C(NCCc1ccccc1)c1ccc(C(F)(F)P(=O)(O)O)cc1`, the inhibition constant (Ki) was found to be 61.6 µM.

In the case of `O=C(NCC(F)(F)F)c1ccc(C(F)(F)P(=O)(O)O)cc1`, the Ki was 49.7 µM. On the same count and under the same terms, the figure for `O=P(O)(O)C(F)(F)c1ccc(S(=O)(=O)Nc2ccccc2)cc1` is above 100 µM; for `O=C(Nc1ccc(C(F)(F)P(=O)(O)O)cc1)Nc1cc(C(F)(F)F)cc(C(F)(F)F)c1` it is 3.1 µM.

Consider `O=C(Nc1ccccc1F)c1ccc(C(F)(F)P(=O)(O)O)cc1`, for which the Ki was above 100 µM.

Consider `O=C(Nc1ccccc1Cl)c1ccc(C(F)(F)P(=O)(O)O)cc1`, for which the inhibition constant Ki turned out to be 68 µM.

In the case of `O=P(O)(O)C(F)(F)c1ccc(-c2ccccc2)cc1`, the inhibitory constant (Ki) was above 100 µM.

The next assay has as its target T2, Tyrosine-protein phosphatase non-receptor type 1 (Homo sapiens, UniProt P18031).
T2 sequence (P18031 whole entry): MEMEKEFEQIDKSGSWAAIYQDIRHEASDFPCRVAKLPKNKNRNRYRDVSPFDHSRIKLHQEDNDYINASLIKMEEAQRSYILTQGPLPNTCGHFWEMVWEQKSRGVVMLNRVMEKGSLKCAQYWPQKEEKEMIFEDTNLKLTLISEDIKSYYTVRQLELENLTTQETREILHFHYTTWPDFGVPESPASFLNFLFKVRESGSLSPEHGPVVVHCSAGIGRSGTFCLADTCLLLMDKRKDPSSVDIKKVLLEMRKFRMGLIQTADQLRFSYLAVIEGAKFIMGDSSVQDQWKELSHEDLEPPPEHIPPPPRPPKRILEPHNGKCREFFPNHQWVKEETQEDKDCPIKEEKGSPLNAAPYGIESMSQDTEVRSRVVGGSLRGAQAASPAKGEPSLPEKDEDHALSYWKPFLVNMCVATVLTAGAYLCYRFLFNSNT
The assay is described as follows: Inhibition of human PTP1B.
Details: not given
In the case of `O=C(Nc1cc(C(F)(F)F)c(Br)c(C(F)(F)F)c1)c1ccc(C(F)(F)P(=O)(O)O)cc1`, the Ki is above 100 µM.

The next assay addresses T3, Tyrosine-protein phosphatase non-receptor type 2 (Homo sapiens, UniProt P17706).
T3 sequence (P17706 whole entry): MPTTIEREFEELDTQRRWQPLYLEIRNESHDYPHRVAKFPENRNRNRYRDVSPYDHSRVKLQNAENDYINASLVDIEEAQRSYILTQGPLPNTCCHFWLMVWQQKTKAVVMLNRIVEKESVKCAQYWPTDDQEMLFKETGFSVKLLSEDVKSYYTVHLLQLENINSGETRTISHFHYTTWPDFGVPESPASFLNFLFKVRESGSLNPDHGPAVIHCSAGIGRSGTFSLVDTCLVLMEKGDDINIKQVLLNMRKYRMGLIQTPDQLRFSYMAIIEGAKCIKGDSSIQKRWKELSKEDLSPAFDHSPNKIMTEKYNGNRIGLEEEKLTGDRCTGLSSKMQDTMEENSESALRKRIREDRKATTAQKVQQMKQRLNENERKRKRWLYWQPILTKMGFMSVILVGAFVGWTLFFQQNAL
In words: Inhibition of human TCPTP.
Details: not given
Regarding `O=C(Nc1cc(C(F)(F)F)c(Br)c(C(F)(F)F)c1)c1ccc(C(F)(F)P(=O)(O)O)cc1`, the Ki was above 100 µM.

Another assay concerns the target Dual specificity protein phosphatase 3 (Homo sapiens, UniProt P51452). In words: Inhibition of human VHR.
Details: not given
In turn, `O=C(Nc1cc(C(F)(F)F)c(Br)c(C(F)(F)F)c1)c1ccc(C(F)(F)P(=O)(O)O)cc1` came in with an inhibition constant (Ki) above 100 µM.

A further assay concerns the target T4, Receptor-type tyrosine-protein phosphatase C (Homo sapiens, UniProt P08575).
T4 sequence (P08575 whole entry): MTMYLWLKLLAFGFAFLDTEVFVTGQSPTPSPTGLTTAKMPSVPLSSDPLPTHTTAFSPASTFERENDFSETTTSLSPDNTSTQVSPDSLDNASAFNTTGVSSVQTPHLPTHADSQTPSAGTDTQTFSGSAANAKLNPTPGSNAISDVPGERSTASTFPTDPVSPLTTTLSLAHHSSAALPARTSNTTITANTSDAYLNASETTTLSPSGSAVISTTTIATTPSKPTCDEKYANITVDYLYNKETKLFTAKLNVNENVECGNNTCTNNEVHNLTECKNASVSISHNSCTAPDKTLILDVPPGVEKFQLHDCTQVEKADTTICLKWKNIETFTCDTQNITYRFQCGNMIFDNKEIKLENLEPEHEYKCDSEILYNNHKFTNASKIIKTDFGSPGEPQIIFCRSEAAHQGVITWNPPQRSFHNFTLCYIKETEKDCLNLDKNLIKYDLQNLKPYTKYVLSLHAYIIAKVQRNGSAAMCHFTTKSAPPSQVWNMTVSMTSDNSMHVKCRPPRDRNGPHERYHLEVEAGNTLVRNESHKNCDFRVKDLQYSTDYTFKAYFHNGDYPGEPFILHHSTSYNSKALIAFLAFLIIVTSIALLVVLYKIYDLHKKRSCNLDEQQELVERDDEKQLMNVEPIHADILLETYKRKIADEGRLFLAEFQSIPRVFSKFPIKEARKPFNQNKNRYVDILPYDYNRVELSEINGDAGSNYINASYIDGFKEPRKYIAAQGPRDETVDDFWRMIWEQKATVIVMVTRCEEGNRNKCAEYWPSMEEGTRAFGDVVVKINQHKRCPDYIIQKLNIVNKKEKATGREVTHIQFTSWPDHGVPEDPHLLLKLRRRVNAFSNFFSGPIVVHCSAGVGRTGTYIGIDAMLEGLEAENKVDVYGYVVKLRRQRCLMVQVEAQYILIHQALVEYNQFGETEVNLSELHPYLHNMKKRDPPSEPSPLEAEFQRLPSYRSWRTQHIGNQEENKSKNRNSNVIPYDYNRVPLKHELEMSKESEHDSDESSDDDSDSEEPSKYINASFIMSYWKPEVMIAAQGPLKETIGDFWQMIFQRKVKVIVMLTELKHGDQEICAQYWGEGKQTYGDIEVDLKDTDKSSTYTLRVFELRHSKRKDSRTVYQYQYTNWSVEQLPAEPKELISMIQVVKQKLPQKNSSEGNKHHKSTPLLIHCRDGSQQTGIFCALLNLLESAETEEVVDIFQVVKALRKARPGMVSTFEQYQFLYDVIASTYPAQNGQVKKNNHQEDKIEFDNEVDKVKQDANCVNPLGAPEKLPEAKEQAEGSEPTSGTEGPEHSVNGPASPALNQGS
The assay is described as follows: Inhibition of human CD45.
Details: not given
Regarding `O=C(Nc1cc(C(F)(F)F)c(Br)c(C(F)(F)F)c1)c1ccc(C(F)(F)P(=O)(O)O)cc1`, the Ki is above 100 µM.

Another assay deals with Receptor-type tyrosine-protein phosphatase F (Homo sapiens, UniProt P10586). The assay is described as follows: Inhibition of human LAR.
Chain of Receptor-type tyrosine-protein phosphatase F (P10586 whole entry): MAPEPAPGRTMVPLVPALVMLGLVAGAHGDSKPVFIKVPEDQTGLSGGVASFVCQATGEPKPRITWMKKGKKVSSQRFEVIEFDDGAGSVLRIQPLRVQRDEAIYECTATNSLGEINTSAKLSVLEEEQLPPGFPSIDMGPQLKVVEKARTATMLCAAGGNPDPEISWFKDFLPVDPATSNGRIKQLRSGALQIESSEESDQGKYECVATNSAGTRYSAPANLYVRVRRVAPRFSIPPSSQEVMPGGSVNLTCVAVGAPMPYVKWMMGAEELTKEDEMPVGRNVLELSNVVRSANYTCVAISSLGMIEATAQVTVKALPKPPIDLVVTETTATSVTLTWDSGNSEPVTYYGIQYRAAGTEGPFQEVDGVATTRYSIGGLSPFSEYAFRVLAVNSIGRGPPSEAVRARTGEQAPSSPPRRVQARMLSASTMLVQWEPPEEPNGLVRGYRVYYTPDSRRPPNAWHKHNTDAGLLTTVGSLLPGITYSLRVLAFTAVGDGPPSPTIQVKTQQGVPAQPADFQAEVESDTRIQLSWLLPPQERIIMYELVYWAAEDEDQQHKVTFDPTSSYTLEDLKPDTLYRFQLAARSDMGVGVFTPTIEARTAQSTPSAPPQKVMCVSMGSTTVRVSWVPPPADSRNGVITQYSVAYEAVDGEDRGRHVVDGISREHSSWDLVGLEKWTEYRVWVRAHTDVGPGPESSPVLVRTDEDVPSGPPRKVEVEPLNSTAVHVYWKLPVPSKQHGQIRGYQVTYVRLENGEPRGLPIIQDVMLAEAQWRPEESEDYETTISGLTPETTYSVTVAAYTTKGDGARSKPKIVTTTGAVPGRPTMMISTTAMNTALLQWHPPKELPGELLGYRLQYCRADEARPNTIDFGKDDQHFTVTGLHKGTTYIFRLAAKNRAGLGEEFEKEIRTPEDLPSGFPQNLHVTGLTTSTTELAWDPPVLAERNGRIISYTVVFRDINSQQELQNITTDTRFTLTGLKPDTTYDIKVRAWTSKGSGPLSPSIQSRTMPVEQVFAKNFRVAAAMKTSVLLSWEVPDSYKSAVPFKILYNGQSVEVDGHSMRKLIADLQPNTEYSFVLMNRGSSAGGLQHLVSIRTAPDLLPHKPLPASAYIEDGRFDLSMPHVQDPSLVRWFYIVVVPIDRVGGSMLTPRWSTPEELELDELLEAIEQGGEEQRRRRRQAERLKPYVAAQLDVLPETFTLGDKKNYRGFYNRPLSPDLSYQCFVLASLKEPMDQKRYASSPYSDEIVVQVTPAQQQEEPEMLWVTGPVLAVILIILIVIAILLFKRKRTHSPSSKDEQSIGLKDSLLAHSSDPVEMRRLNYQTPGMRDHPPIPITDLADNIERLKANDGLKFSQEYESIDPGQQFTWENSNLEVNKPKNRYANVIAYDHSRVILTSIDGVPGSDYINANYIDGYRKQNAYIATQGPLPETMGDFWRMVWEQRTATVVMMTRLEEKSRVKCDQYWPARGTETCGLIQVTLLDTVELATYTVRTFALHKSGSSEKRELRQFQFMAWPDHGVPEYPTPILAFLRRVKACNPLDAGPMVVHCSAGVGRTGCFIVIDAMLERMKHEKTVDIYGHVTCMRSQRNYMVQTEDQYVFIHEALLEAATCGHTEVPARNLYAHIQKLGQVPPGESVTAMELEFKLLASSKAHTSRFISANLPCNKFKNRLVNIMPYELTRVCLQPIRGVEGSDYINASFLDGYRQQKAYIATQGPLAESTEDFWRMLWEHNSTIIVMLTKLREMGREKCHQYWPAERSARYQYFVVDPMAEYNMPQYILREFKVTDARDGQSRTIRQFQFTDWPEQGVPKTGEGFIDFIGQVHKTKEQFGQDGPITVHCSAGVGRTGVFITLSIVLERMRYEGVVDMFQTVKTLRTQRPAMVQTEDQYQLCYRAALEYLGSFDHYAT
Details: not given
Molecule `O=C(Nc1cc(C(F)(F)F)c(Br)c(C(F)(F)F)c1)c1ccc(C(F)(F)P(=O)(O)O)cc1` gave a Ki above 100 µM.

The next assay concerns the target T5, Low molecular weight phosphotyrosine protein phosphatase (Homo sapiens, UniProt P24666).
T5 sequence (P24666 whole entry): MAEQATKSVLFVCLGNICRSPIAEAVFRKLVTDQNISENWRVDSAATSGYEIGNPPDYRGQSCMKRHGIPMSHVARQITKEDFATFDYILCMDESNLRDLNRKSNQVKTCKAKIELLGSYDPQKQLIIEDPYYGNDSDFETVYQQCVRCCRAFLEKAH
The assay is described as follows: Inhibition of human HCPTPA.
Details: not given
On to `O=C(Nc1cc(C(F)(F)F)c(Br)c(C(F)(F)F)c1)c1ccc(C(F)(F)P(=O)(O)O)cc1`, for which the Ki came out at 14.8 µM.

The values are drawn from ChEMBL document CHEMBL1153717.
